Publication PMC12238723, “Phase I Clinical Trial of CVL218, a Novel PARP1/2 Inhibitor, in Patients with Advanced Solid Tumors” (MedComm, 2025)

Experiments:
[1] = tested on: patients with advanced solid tumors; experiment: Dose-limiting toxicity, MTD and recommended dose; type: in vivo
Experimental: CVL218 was administered orally, and this dose‐escalation trial included nine dose levels: 100 mg QD (50 mg BID), 200 mg QD (100 mg BID), 400 mg QD (200 mg BID), 700 mg QD (350 mg BID), 1000 mg QD (500 mg BID), 1200 mg QD (600 mg BID), 1400 mg QD (700 mg BID), 1700 mg QD (850 mg BID), and 2000 mg QD (1000 mg BID). Patients enrolled in the study received a single oral dose on the first day, followed by continuous multiple dosing (twice a day taking 12 h apart) after 72 h, with the treatment cycle lasting 4 weeks. The period during which patients received a single dose is designated as cycle 0 (C0), lasting 72 h. After this period, patients begin multiple dosing, referred to as cycle 1 (C1). An initial accelerated titration design was employed for the three lowest dose groups, and the “3+3” design was applied starting with the 300 mg BID cohort.
The primary objectives were to assess safety and tolerability as well as to determine the MTD, DLT, and dose recommended for further study. DLT was defined as any of the following events occurring during cycle 0 (including 72 h wash‐out period after a single dose) and cycle 1 per Common Terminology Criteria for Adverse Events (CTCAE) version 5.0: grade 4 anemia; grade 4 neutropenia; grade 3 neutropenia with fever ≥38.5°C; grade 4 thrombocytopenia; grade 3 thrombocytopenia associated with bleeding; grade ≥2 neurotoxicity; any other grade ≥3 nonhematological toxicities (excluding alopecia). The secondary objectives were to assess the PK and preliminary efficacy of CVL218.

[2] = set-up: method as in PMID 36283983; settings: cited from earlier work

CNCc1ccc(-c2cc3cc(F)cc(C(N)=O)c3o2)cc1.Cl [CVL218]
Any DLT ([1]; 50 mg BID (N = 1)): 0 n (%) | DLT: Increased creatinine ([1]; 50 mg BID (N = 1)): 0 n (%) | DLT: Renal failure ([1]; 50 mg BID (N = 1)): 0 n (%) | Any DLT ([1]; 100 mg BID (N = 1)): 0 n (%) | DLT: Increased creatinine ([1]; 100 mg BID (N = 1)): 0 n (%) | DLT: Renal failure ([1]; 100 mg BID (N = 1)): 0 n (%) | Any DLT ([1]; 200 mg BID (N = 1)): 0 n (%) | DLT: Increased creatinine ([1]; 200 mg BID (N = 1)): 0 n (%) | DLT: Renal failure ([1]; 200 mg BID (N = 1)): 0 n (%) | Any DLT ([1]; 350 mg BID (N = 4)): 0 n (%) | DLT: Increased creatinine ([1]; 350 mg BID (N = 4)): 0 n (%) | DLT: Renal failure ([1]; 350 mg BID (N = 4)): 0 n (%) | Any DLT ([1]; 500 mg BID (N = 4)): 0 n (%) | DLT: Increased creatinine ([1]; 500 mg BID (N = 4)): 0 n (%) | DLT: Renal failure ([1]; 500 mg BID (N = 4)): 0 n (%) | Any DLT ([1]; 600mg BID (N=4)): 0 n (%) | DLT: Increased creatinine ([1]; 600mg BID (N=4)): 0 n (%) | DLT: Renal failure ([1]; 600mg BID (N=4)): 0 n (%) | Any DLT ([1]; 700 mg BID (N = 6)): 1 (16.7) n (%) | DLT: Increased creatinine ([1]; 700 mg BID (N = 6)): 0 n (%) | DLT: Renal failure ([1]; 700 mg BID (N = 6)): 1 (16.7) n (%) | Any DLT ([1]; 850mg BID (N=5)): 2 (40.0) n (%) | DLT: Increased creatinine ([1]; 850mg BID (N=5)): 2 (40.0) n (%) | DLT: Renal failure ([1]; 850mg BID (N=5)): 0 n (%) | Any DLT ([1]; Overall (N=26)): 3 (11.5) n (%) | DLT: Increased creatinine ([1]; Overall (N=26)): 2 (7.7) n (%) | DLT: Renal failure ([1]; Overall (N=26)): 1 (3.8) n (%) | recommended dose for further study ([1]; oral): 700 mg BID | maximum tolerated dose (MTD) ([1]; oral, patients with advanced solid tumors): 700 mg BID | blood–brain barrier crossing [2]: readily crosses the blood–brain barrier
